Source: PMC11053772, “Improved Chemical and Radiochemical Synthesis of Neuropeptide Y Y2 Receptor Antagonist N-Methyl-JNJ-31020028 and Preclinical Positron Emission Tomography Studies” (Pharmaceuticals, 2024)
Values belong to the compound of their own block, whether it stands above or below them.

Columns and labels:
[1] = system: Y2 receptors; design: method as in PMID 19953226; conditions: cited from earlier work
[2] = system: Y2 receptor; design: method as in PMID 24614224; conditions: living pigs; cited from earlier work
[3] = Ex vivo biodistribution by gamma counting one hour after i.v. injection; type: in vivo, C57BL/6N mice; conditions: mice, 1 h after i.v. injection
Method: The ex vivo biodistribution studies were performed one hour after the intravenous injection of the [^11C]2 injectable solution. For these studies, transcardiac perfusion with saline was performed, eliminating blood traces from the organs. […] Urinary excretion also occurred, though less radioactivity was found in the urine (84.43 ± 59.41%ID/g). The small intestine (98.64 ± 25.57%ID/g) and liver (14.33 ± 6.39%ID/g) were the organs with major uptake of the radiotracer. The high uptake in the small intestine is explained by the high density of Y2 receptors that exist in this organ, while the uptake in the liver is related to the metabolization of the tracer. Moderately low uptake was found in the stomach (3.082 ± 0.7135%ID/g), large intestine (2.18 ± 0.21%ID/g) and kidneys (1.99 ± 0.49%ID/g).
Biodistribution. In another cohort of animals (n = 5), ex vivo biodistribution (%ID/g of tissue) was performed by gamma counting through CRC®-55t well counter and CRC®-55tW radioisotope dose calibrator (Capintec, Ramsey, NJ, USA). Six regions of the brain were also isolated to characterise brain accumulation; the isolation of the specific brain regions was conducted following established protocols.

[4] = In vivo PET/MRI biodistribution of the radiotracer in mice; design: species or system C57BL/6N mice; conditions: i.v., 30–50 min post-injection, mean ± SEM, n = 7
Method: PET/MRI images of N-[^11C]Me-JNJ-31020028 and biodistribution studies were performed in healthy C57BL/6N mice. The radiotracer [^11C]2 injectable solutions were administered intravenously to the mice, previously anaesthetised, and the mice were put in the MicroPET scanner for PET imaging acquisition. The MRI acquisition was performed before injection due to the necessity of using equipment different from MicroPET.
PET/MRI Imaging. PET/MRI acquisitions were performed at the Institute for Nuclear Sciences Applied to Health (ICNAS) animal facility. During both acquisitions, the animals (n = 7) were anaesthetised using 1.5–2% isoflurane, and vital signs, such as temperature and respiratory cycle, were monitored. The radiotracer was administered intravenously (i.v.) in a total injected activity of 12.0 ± 2.9 µCi/g. Mice were placed in a MicroPET scanner based on resistive plate chamber detectors (RPC-PET). […] Quantitative imaging processing was performed using PMOD (PMOD, v 3.6; PMOD Technologies, Zürich, Switzerland, RRID: SCR_016547). […] Standardised uptake values (SUVs) were calculated as [[total positron (β+ radioactivity) concentration in the VOI (Bq/mL)]/[total positron (β+ radioactivity) injected (Bq)/weight (g)]] […] The percentage injected dose per gram (%ID/g) was calculated through Equation (2). […]

[5] = mean ± SEM, n = 5, listed as [^11C]2

SMILES: CCN(CC)C(=O)C(c1ccccc1)N1CCN(c2ccc(NC(=O)c3ccccc3-c3cccnc3)cc2F)CC1 (stereo not shown) [JNJ-31020028, N-(4-{4-[2-(diethylamino)-2-oxo-1-phenylethyl]piperazin1-yl}-3-fluorophenyl)-2-pyridin-3-ylbenzamide]
Affinity and selectivity towards the Y2 receptors [1]: high affinity and selectivity

Ex vivo biodistribution, small intestine ([3]; intestine wall, mean ± SEM, n = 5): 98.64 ± 25.57 %ID/g
Brain ex vivo biodistribution, amygdala ([3]; mean ± SEM, n = 5): 0.9318 ± 0.08 %ID/g
Brain ex vivo biodistribution, cerebellum ([3]; mean ± SEM, n = 5): 0.646 ± 0.10 %ID/g
Brain ex vivo biodistribution, hippocampus ([3]; mean ± SEM, n = 5): 0.8976 ± 0.09 %ID/g
Brain ex vivo biodistribution, hypothalamus ([3]; mean ± SEM, n = 5): 1.03 ± 0.11 %ID/g
Brain ex vivo biodistribution, pre-frontal cortex (PFC) ([3]; mean ± SEM, n = 5): 0.636 ± 0.06 %ID/g
Brain ex vivo biodistribution, striatum ([3]; mean ± SEM, n = 5): 1.013 ± 0.11 %ID/g
Ex vivo biodistribution, blood ([3]; mean ± SEM, n = 5): 3.661 %ID/g
Ex vivo biodistribution, kidney ([3]; mean ± SEM, n = 5): 1.986 %ID/g
Ex vivo biodistribution, large intestine ([3]; mean ± SEM, n = 5): 2.18 ± 0.21 %ID/g
Ex vivo biodistribution, liver ([3]; mean ± SEM, n = 5): 14.33 ± 6.39 %ID/g
Ex vivo biodistribution, urine ([3]; mean ± SEM, n = 5): 84.43 ± 59.41 %ID/g
Ex vivo biodistribution, bile [3, 5]: 250.1 ± 23.97 %ID/g
Ex vivo biodistribution, blood [3, 5]: 3.66 ± 1.55 %ID/g
Ex vivo biodistribution, kidney [3, 5]: 1.99 ± 0.49 %ID/g
Ex vivo biodistribution, stomach [3, 5]: 3.082 ± 0.7135 %ID/g
Ex vivo biodistribution, faeces ([3]; n = 5): 3.149 %ID/g
Ex vivo biodistribution, heart ([3]; n = 5): 1.394 %ID/g
Ex vivo biodistribution, lung ([3]; n = 5): 0.5568 %ID/g
Ex vivo biodistribution, muscle ([3]; n = 5): 0.9318 %ID/g
Ex vivo biodistribution, spleen ([3]; n = 5): 1.504 %ID/g
Ex vivo biodistribution, whole brain ([3]; n = 5): 0.6362 %ID/g
Uptake in the brain (in vivo PET) [4]: 0.5187 ± 0.08 %ID/g
Uptake in the gut (in vivo PET) [4]: 12.57 ± 1.27 %ID/g
SMILES: CCN(CC)C(=O)C(c1ccccc1)N1CCN(c2ccc(N([11CH3])C(=O)c3ccccc3-c3cccnc3)cc2F)CC1 (stereo not shown) [N-[^11C]Me-JNJ-31020028]
Blood–brain barrier permeation [2]: permeated the blood–brain barrier
Metabolization in the bloodstream [2]: slow metabolization in the bloodstream
Route of elimination ([3]; from uptake in bile): mainly eliminated through the hepatobiliary system
